Two molecules from patent publication US20130071368A1, “PREPARATION, USE OF PREPARATION FOR TREATMENT, AND METHOD OF TREATMENT OF INTESTINAL INFECTION” (FAYREFIELD FOODS LIMITED, priority 2007, published 2013) can be followed below.

Structures are written as SMILES.

This assay deals with C. difficile infection. Put plainly: Anecdotal treatment of patients with C. difficile infection. The format is in vivo, human. As to conditions: patient, second presentation. The procedure:
A patient was suffering severe symptoms of C. difficile infection, in spite of narrow-spectrum antibiotic treatment, for a period of approximately three months. The treatment protocol was then modified to include, additionally, the oral administration of cranberry puree and GOS at least once daily.
A further patient, presenting for the second time with symptoms of c. difficile was treated initially with metronidazole and then, subsequently, with vancomycin. […] At the point of administration of a mixture of galacto-oligosaccharide and cranberry puree the patient was recording 16 episodes of open bowel in a 24 hour period, was suffering from severe dehydration and was causing significant concern that death might imminently result.

Turning to `Cc1ncc([N+](=O)[O-])n1CCO` [metronidazole], the “effect of antibiotic treatment on symptoms of c. difficile” value is recorded as “Neither treatment was having any effect”.
For the molecule `CN[C@H](CC(C)C)C(=O)N[C@H]1C(=O)N[C@@H](CC(N)=O)C(=O)N[C@H]2C(=O)N[C@H]3C(=O)N[C@H](C(=O)N[C@H](C(=O)O)c4cc(O)cc(O)c4-c4cc3ccc4O)[C@H](O)c3ccc(c(Cl)c3)Oc3cc2cc(c3O[C@@H]2O[C@H](CO)[C@@H](O)[C@H](O)[C@H]2O[C@H]2C[C@](C)(N)[C@H](O)[C@H](C)O2)Oc2ccc(cc2Cl)[C@H]1O` [vancomycin], the “effect of antibiotic treatment on symptoms of c. difficile” value is “Neither treatment was having any effect”.
